What was measured:
Experiment in all cases: radiometric filter-binding kinase assay, Kinase HotSpot
Details in all cases: compound 0.5 µM; ATP 10 µM
AKT3 (human) = AKT3 (human) (UniProt Q9Y243)
CAMK1D (human) = CAMK1D (human) (UniProt Q8IU85)
CAMK2D (human) = CAMK2D (human) (UniProt Q13557)
CAMKK2 (human) = CAMKK2 (human) (UniProt Q96RR4)
CDC42BPA (human) = CDC42BPA (human) (UniProt Q5VT25)
CDK3 CCNE1 (human) = CDK3 CCNE1 (human) (UniProt Q00526+P24864)
CDK7 CCNH MNAT1 (human) = CDK7 CCNH MNAT1 (human) (UniProt P50613+P51948+P51946)
CHUK (human) = CHUK (human) (UniProt O15111)
CSNK1A1 (human) = CSNK1A1 (human) (UniProt P48729)
CSNK1G2 (human) = CSNK1G2 (human) (UniProt P78368)
Chain of CSNK1G2 (human) (P78368 whole entry, looked up): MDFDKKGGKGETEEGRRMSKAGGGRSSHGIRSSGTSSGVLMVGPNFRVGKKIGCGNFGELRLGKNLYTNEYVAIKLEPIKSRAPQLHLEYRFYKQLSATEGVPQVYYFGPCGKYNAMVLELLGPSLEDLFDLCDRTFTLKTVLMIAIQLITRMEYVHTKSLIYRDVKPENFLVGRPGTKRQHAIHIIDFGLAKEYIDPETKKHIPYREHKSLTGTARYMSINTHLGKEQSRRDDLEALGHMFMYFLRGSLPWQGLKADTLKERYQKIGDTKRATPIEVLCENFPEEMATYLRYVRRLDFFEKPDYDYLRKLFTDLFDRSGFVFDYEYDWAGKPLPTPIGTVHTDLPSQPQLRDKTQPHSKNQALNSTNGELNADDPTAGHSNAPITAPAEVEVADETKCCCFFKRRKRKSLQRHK

DYRK2 (human) = DYRK2 (human) (UniProt Q92630)
EGFR (human) = EGFR (human) (UniProt P00533)
EPHA6 (human) = EPHA6 (human) (UniProt Q9UF33)
Chain of EPHA6 (human) (Q9UF33 whole entry, looked up): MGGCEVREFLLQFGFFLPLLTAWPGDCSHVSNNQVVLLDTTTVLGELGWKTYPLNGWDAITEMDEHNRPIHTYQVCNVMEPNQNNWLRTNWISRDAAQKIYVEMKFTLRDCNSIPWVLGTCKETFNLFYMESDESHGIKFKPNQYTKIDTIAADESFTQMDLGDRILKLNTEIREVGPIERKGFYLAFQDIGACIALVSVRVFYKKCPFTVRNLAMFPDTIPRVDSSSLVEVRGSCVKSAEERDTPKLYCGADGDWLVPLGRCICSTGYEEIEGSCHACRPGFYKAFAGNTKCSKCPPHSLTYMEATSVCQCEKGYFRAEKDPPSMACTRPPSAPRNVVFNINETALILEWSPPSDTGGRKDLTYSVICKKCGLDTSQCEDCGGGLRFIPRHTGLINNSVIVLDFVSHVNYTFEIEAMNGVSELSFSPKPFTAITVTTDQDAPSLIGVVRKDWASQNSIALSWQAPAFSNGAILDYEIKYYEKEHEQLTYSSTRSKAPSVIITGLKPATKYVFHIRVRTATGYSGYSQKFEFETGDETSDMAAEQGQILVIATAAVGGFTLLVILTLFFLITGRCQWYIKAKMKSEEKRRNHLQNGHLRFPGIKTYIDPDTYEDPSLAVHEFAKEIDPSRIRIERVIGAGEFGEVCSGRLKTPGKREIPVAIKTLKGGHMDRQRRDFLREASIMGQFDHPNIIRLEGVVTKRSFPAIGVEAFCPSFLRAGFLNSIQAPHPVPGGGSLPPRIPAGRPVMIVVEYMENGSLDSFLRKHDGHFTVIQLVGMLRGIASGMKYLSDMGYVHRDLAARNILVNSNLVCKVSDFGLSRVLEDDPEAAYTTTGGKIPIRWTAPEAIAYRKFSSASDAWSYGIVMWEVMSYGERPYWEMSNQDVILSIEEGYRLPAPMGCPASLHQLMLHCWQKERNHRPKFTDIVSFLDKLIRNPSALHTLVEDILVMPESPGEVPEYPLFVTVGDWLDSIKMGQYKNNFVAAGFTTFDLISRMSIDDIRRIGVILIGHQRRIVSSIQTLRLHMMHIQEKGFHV

EPHB2 (human) = EPHB2 (human) (UniProt P29323)
ERBB4 (human) = ERBB4 (human) (UniProt Q15303)
GRK5 (human) = GRK5 (human) (UniProt P34947)
GRK6 (human) = GRK6 (human) (UniProt P43250)
GRK7 (human) = GRK7 (human) (UniProt Q8WTQ7)
Chain of GRK7 (human) (Q8WTQ7 whole entry, looked up): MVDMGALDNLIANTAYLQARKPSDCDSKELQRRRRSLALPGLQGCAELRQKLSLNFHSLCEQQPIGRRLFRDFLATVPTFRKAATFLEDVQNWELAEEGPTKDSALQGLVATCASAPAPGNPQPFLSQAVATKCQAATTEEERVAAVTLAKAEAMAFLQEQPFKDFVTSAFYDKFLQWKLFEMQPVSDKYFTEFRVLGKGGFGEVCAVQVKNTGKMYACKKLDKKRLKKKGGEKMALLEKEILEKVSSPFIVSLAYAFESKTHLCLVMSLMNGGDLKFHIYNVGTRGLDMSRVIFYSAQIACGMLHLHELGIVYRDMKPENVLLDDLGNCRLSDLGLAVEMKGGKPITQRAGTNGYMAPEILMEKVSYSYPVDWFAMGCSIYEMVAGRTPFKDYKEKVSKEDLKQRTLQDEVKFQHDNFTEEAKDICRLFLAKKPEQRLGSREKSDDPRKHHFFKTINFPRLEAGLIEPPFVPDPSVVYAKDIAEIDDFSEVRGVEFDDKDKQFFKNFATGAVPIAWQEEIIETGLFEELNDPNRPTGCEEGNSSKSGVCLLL

HIPK1 (human) = HIPK1 (human) (UniProt Q86Z02)
HIPK2 (human) = HIPK2 (human) (UniProt Q9H2X6)
INSRR (human) = INSRR (human) (UniProt P14616)
[1] = biological target: JAK1 JH1 catalytic (human) (UniProt P23458)
Chain of JAK1 JH1 catalytic (human) (P23458 whole entry, looked up): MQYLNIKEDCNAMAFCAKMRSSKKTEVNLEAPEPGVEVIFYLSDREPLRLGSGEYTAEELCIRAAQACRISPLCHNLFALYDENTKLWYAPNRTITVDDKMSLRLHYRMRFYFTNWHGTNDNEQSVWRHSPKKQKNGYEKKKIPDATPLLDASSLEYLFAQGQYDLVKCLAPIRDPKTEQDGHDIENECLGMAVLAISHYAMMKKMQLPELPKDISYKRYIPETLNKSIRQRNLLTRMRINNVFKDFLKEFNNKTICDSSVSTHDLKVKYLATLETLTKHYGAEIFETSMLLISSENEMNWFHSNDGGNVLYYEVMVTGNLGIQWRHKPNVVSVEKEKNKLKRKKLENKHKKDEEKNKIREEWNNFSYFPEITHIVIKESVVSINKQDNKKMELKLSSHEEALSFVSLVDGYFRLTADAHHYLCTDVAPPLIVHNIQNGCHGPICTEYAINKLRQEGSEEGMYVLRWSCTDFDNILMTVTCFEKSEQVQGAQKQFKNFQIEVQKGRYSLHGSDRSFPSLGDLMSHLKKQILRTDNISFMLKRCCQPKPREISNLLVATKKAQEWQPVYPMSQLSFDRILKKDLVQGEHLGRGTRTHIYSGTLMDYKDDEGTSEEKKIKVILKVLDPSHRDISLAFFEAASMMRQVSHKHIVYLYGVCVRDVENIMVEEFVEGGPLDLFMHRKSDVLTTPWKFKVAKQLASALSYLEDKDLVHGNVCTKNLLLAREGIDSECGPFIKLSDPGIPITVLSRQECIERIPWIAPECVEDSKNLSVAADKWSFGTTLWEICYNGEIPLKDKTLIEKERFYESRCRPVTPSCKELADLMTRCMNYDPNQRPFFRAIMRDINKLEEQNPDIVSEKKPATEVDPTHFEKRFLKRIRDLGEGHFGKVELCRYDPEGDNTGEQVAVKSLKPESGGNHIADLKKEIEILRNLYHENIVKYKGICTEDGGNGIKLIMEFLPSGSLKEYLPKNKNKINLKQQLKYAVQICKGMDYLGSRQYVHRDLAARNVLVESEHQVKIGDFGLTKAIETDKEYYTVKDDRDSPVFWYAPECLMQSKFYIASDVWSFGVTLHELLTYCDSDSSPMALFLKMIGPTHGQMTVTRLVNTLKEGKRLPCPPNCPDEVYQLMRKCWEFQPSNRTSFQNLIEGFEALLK

MAPK10 (human) = MAPK10 (human) (UniProt P53779)
MARK1 (human) = MARK1 (human) (UniProt Q9P0L2)
MATK (human) = MATK (human) (UniProt P42679)
MKNK2 (human) = MKNK2 (human) (UniProt Q9HBH9)
NEK1 (human) = NEK1 (human) (UniProt Q96PY6)
NUAK1 (human) = NUAK1 (human) (UniProt O60285)
PAK6 (human) = PAK6 (human) (UniProt Q9NQU5)
PHKG1 (human) = PHKG1 (human) (UniProt Q16816)
PLK2 (human) = PLK2 (human) (UniProt Q9NYY3)
PRKACG (human) = PRKACG (human) (UniProt P22612)
PTK6 (human) = PTK6 (human) (UniProt Q13882)
RPS6KA1 KD1 KD2 (human) = RPS6KA1 KD1 KD2 (human) (UniProt Q15418)
STK24 (human) = STK24 (human) (UniProt Q9Y6E0)
STK38 (human) = STK38 (human) (UniProt Q15208)
TAOK2 (human) = TAOK2 (human) (UniProt Q9UL54)
TAOK3 (human) = TAOK3 (human) (UniProt Q9H2K8)
TEC (human) = TEC (human) (UniProt P42680)
Chain of TEC (human) (P42680 whole entry, looked up): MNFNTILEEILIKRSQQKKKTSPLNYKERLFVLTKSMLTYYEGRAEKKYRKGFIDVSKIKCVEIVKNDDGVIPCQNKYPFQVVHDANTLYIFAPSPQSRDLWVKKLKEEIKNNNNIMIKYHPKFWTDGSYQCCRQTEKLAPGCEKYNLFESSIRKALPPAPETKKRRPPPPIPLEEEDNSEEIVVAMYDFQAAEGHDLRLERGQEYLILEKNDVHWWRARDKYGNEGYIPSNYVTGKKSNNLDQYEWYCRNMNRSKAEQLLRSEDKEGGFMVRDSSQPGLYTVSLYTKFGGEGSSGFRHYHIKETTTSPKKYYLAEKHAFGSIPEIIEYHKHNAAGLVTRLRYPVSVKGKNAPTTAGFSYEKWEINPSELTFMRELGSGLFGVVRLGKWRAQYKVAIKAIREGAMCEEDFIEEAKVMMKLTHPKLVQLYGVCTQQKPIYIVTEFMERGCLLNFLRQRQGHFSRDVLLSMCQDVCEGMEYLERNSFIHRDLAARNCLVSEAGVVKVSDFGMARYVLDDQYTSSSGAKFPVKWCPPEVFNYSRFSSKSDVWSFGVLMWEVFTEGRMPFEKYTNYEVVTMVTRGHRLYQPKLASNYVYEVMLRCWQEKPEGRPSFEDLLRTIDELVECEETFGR

TLK2 (human) = TLK2 (human) (UniProt Q86UE8)
Chain of TLK2 (human) (Q86UE8 whole entry, looked up): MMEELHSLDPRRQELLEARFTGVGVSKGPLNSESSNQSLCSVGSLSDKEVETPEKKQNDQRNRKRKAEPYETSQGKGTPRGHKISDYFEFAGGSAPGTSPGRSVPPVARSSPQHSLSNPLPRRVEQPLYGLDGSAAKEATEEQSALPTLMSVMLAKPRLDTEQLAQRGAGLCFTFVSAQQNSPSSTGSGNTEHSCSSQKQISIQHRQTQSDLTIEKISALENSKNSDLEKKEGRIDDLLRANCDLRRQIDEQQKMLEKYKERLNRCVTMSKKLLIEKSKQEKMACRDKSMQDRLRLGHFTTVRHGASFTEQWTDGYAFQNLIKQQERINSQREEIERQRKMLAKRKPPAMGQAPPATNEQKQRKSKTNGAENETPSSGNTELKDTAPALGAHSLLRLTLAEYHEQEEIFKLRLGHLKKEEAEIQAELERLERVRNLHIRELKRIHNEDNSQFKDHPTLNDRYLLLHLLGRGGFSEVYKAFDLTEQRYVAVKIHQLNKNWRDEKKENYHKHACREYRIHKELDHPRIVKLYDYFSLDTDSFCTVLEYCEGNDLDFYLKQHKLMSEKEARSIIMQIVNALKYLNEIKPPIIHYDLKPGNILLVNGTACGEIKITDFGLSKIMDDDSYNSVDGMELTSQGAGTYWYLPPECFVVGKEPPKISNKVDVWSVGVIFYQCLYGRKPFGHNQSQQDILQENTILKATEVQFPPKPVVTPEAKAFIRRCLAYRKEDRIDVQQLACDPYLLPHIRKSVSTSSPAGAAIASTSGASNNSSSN

TTK (human) = TTK (human) (UniProt P33981)
ULK3 (human) = ULK3 (human) (UniProt Q6PHR2)

Chain of AKT3 (human) (Q9Y243 whole entry, looked up): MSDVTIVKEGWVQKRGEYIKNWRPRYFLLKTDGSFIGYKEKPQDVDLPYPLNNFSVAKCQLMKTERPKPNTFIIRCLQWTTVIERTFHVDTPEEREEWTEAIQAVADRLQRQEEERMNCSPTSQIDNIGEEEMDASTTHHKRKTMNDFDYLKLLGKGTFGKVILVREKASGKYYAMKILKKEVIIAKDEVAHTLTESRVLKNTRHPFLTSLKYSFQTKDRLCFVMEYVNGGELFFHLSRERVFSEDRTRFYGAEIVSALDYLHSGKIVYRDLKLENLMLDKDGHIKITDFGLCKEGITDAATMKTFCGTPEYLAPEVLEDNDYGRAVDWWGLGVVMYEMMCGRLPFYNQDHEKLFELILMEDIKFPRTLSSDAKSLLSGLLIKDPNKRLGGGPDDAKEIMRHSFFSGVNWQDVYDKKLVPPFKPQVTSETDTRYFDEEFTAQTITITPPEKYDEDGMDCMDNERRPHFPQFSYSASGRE

COc1cc2ncnc(Nc3ccc(Oc4ccccc4)cc3)c2cc1OC
residual activity (AKT3 (human)): 105%
residual activity (CAMK1D (human)): 99.7%
residual activity (CAMK2D (human)): 97.2%
residual activity (CAMKK2 (human)): 104%
residual activity (CDC42BPA (human)): 95.4%
residual activity (CDK3 CCNE1 (human)): 98.5%
residual activity (CDK7 CCNH MNAT1 (human)): 102%
residual activity (CHUK (human)): 101%
residual activity (CSNK1A1 (human)): 98.2%
residual activity (CSNK1G2 (human)): 99.9%
residual activity (DYRK2 (human)): 104%
residual activity (EGFR (human)): 31.6%
residual activity (EPHA6 (human)): 64.8%
residual activity (EPHB2 (human)): 99.7%
residual activity (ERBB4 (human)): 8.79%
residual activity (GRK5 (human)): 97.4%
residual activity (GRK6 (human)): 99.6%
residual activity (GRK7 (human)): 103%
residual activity (HIPK1 (human)): 102%
residual activity (HIPK2 (human)): 94.8%
residual activity (INSRR (human)): 102%
residual activity [1]: 105%
residual activity (MAPK10 (human)): 103%
residual activity (MARK1 (human)): 93.3%
residual activity (MATK (human)): 94.3%
residual activity (MKNK2 (human)): 47.9%
residual activity (NEK1 (human)): 101%
residual activity (NUAK1 (human)): 105%
residual activity (PAK6 (human)): 109%
residual activity (PHKG1 (human)): 91.8%
residual activity (PLK2 (human)): 104%
residual activity (PRKACG (human)): 137%
residual activity (PTK6 (human)): -0.0383%
residual activity (RPS6KA1 KD1 KD2 (human)): 97.6%
residual activity (STK24 (human)): 91.6%
residual activity (STK38 (human)): 105%
residual activity (TAOK2 (human)): 97.8%
residual activity (TAOK3 (human)): 102%
residual activity (TEC (human)): 43.3%
residual activity (TLK2 (human)): 107%
residual activity (TTK (human)): 90%
residual activity (ULK3 (human)): 94.7%

c1ccc2c(-c3ccncc3)c[nH]c2c1
residual activity (AKT3 (human)): 101%
residual activity (CAMK1D (human)): 107%
residual activity (CAMK2D (human)): 103%
residual activity (CAMKK2 (human)): 113%
residual activity (CDC42BPA (human)): 99.9%
residual activity (CDK3 CCNE1 (human)): 98.2%
residual activity (CDK7 CCNH MNAT1 (human)): 97%
residual activity (CHUK (human)): 107%
residual activity (CSNK1A1 (human)): 100%
residual activity (CSNK1G2 (human)): 95%
residual activity (DYRK2 (human)): 77.5%
residual activity (EGFR (human)): 97.3%
residual activity (EPHA6 (human)): 104%
residual activity (EPHB2 (human)): 114%
residual activity (ERBB4 (human)): 83.7%
residual activity (GRK5 (human)): 99.2%
residual activity (GRK6 (human)): 103%
residual activity (GRK7 (human)): 98.4%
residual activity (HIPK1 (human)): 97.4%
residual activity (HIPK2 (human)): 94.1%
residual activity (INSRR (human)): 101%
residual activity [1]: 109%
residual activity (MAPK10 (human)): 102%
residual activity (MARK1 (human)): 94.5%
residual activity (MATK (human)): 93.9%
residual activity (MKNK2 (human)): 39.2%
residual activity (NEK1 (human)): 101%
residual activity (NUAK1 (human)): 94.8%
residual activity (PAK6 (human)): 104%
residual activity (PHKG1 (human)): 90.3%
residual activity (PLK2 (human)): 99.9%
residual activity (PRKACG (human)): 107%
residual activity (PTK6 (human)): 85.5%
residual activity (RPS6KA1 KD1 KD2 (human)): 93.8%
residual activity (STK24 (human)): 93.5%
residual activity (STK38 (human)): 109%
residual activity (TAOK2 (human)): 92.1%
residual activity (TAOK3 (human)): 103%
residual activity (TEC (human)): 123%
residual activity (TLK2 (human)): 95.8%
residual activity (TTK (human)): 112%
residual activity (ULK3 (human)): 83%

O=C1c2ccccc2-c2nc3nnnn3nc21
residual activity (AKT3 (human)): 81.2%
residual activity (CAMK1D (human)): 93.9%
residual activity (CAMK2D (human)): 93%
residual activity (CAMKK2 (human)): 76.9%
residual activity (CDC42BPA (human)): 91.6%
residual activity (CDK3 CCNE1 (human)): 73.4%
residual activity (CDK7 CCNH MNAT1 (human)): 94.1%
residual activity (CHUK (human)): 72%
residual activity (CSNK1A1 (human)): 85.8%
residual activity (CSNK1G2 (human)): 82.2%
residual activity (DYRK2 (human)): 113%
residual activity (EGFR (human)): 37%
residual activity (EPHA6 (human)): 106%
residual activity (EPHB2 (human)): 86.1%
residual activity (ERBB4 (human)): 50.2%
residual activity (GRK5 (human)): 74.3%
residual activity (GRK6 (human)): 58%
residual activity (GRK7 (human)): 78.1%
residual activity (HIPK1 (human)): 99.3%
residual activity (HIPK2 (human)): 107%
residual activity (INSRR (human)): 86.7%
residual activity [1]: 101%
residual activity (MAPK10 (human)): 55%
residual activity (MARK1 (human)): 98.2%
residual activity (MATK (human)): 99.7%
residual activity (MKNK2 (human)): 78.3%
residual activity (NEK1 (human)): 46.3%
residual activity (NUAK1 (human)): 89.8%
residual activity (PAK6 (human)): 108%
residual activity (PHKG1 (human)): 92.5%
residual activity (PLK2 (human)): 37.3%
residual activity (PRKACG (human)): 88.5%
residual activity (PTK6 (human)): 111%
residual activity (RPS6KA1 KD1 KD2 (human)): 53.1%
residual activity (STK24 (human)): 101%
residual activity (STK38 (human)): 46.6%
residual activity (TAOK2 (human)): 91.9%
residual activity (TAOK3 (human)): 90.8%
residual activity (TEC (human)): 2.44%
residual activity (TLK2 (human)): 100%
residual activity (TTK (human)): 125%
residual activity (ULK3 (human)): 103%

Fc1ccc(-c2nc3n(c2-c2ccncc2)CCS3)cc1
residual activity (AKT3 (human)): 109%
residual activity (CAMK1D (human)): 100%
residual activity (CAMK2D (human)): 97.1%
residual activity (CAMKK2 (human)): 99.9%
residual activity (CDC42BPA (human)): 88.7%
residual activity (CDK3 CCNE1 (human)): 97%
residual activity (CDK7 CCNH MNAT1 (human)): 95%
residual activity (CHUK (human)): 104%
residual activity (CSNK1A1 (human)): 58.8%
residual activity (CSNK1G2 (human)): 76.4%
residual activity (DYRK2 (human)): 101%
residual activity (EGFR (human)): 90.7%
residual activity (EPHA6 (human)): 94.7%
residual activity (EPHB2 (human)): 99.3%
residual activity (ERBB4 (human)): 83%
residual activity (GRK5 (human)): 103%
residual activity (GRK6 (human)): 103%
residual activity (GRK7 (human)): 104%
residual activity (HIPK1 (human)): 108%
residual activity (HIPK2 (human)): 99.2%
residual activity (INSRR (human)): 102%
residual activity [1]: 106%
residual activity (MAPK10 (human)): 116%
residual activity (MARK1 (human)): 102%
residual activity (MATK (human)): 89.4%
residual activity (MKNK2 (human)): 84.9%
residual activity (NEK1 (human)): 103%
residual activity (NUAK1 (human)): 98.6%
residual activity (PAK6 (human)): 106%
residual activity (PHKG1 (human)): 94.6%
residual activity (PLK2 (human)): 103%
residual activity (PRKACG (human)): 116%
residual activity (PTK6 (human)): 84.8%
residual activity (RPS6KA1 KD1 KD2 (human)): 100%
residual activity (STK24 (human)): 94.2%
residual activity (STK38 (human)): 88%
residual activity (TAOK2 (human)): 95.7%
residual activity (TAOK3 (human)): 98.9%
residual activity (TEC (human)): 130%
residual activity (TLK2 (human)): 94.7%
residual activity (TTK (human)): 100%
residual activity (ULK3 (human)): 79.2%

— the kinase profiling compilation of Christmann-Franck et al. (2016)
